Experimental data from article PMC5869554 (CPT: Pharmacometrics & Systems Pharmacology, 2017).
Values after ≈ are worked out from the molar mass of the structure shown. Like-named read-outs stand apart in the source and are kept apart here. Values belong to the compound of their own block, whether it stands above or below them.

Columns and labels:
guinea pig trachea = settings: cited from earlier work
[1] = Solubility in phosphate buffer at pH 7.4; format: physicochemical
human bronchi = settings: cited from earlier work
pKa determination = format: physicochemical
[2] = tested on: forced expiratory volume in 1 second (FEV1); test: Clinical lung function; format: in vivo, human; settings: once daily dosing; glycopyrronium 25 µg, indacaterol 300 µg, batefenterol 800 µg; COPD patients
[3] = LogD7.4, octanol/water partition coefficient; format: physicochemical; settings: for logD: pH 7.4; for LogD7.4: aqueous phase at pH7.4
[4] = ref 8, 9; cited from earlier work
[5] = phosphate buffer, pH 7.4, aqueous buffer
[6] = pKa, second printed value (dibase)

solubility [1, 5]: > 2900 µM | pKa (pKa determination; pKa): 9.2
Structure (SMILES): CC(C)(C)NCC(O)c1ccc(O)c(CO)c1 (stereo not shown) [Salbutamol]
In vitro guinea pig trachea pIC50 (guinea pig trachea; ref 19): 6.719 | In vitro human bronchi pIC50 (human bronchi; ref 21): 6.4 | In vitro human bronchi pIC50 (human bronchi; ref 22): 6.9

Structure (SMILES): C[N+]1(C)CCC(OC(=O)C(O)(c2ccccc2)C2CCCC2)C1 (stereo not shown) [Glycopyrronium]
In vitro guinea pig trachea pIC50 (guinea pig trachea; ref 25): 9.025 | associated increase in FEV1, single to multiple dosing [2]: around 40 mL | In vitro human bronchi pIC50 (human bronchi; ref 24): 8.4 | In vitro human bronchi pIC50 (human bronchi; ref 25): 10.4

solubility [1, 5]: > 2800 µM
Structure (SMILES): C[N+]1(C)[C@@H]2C[C@@H](OC(=O)C(O)(c3cccs3)c3cccs3)C[C@H]1[C@@H]1O[C@@H]12 [Tiotropium]
In vitro guinea pig trachea pIC50 (guinea pig trachea; ref 25): 9.125 | In vitro human bronchi pIC50 (human bronchi; ref 25): 9.525

Structure (SMILES): CC(C)[N+]1(C)[C@@H]2CC[C@H]1C[C@@H](OC(=O)C(CO)c1ccccc1)C2 (stereo partly shown) [Ipratropium]
In vitro guinea pig trachea pIC50 (guinea pig trachea; ref 25): 8.625 | In vitro human bronchi pIC50 (human bronchi; ref 25): 9.525

logD [3]: 2.8 | solubility [1, 5]: 25 µM (≈ 9.81 µg/mL) | pKa (pKa determination; pKa): 8.3
Structure (SMILES): CCc1cc2c(cc1CC)CC(NC[C@H](O)c1ccc(O)c3[nH]c(=O)ccc13)C2 [Indacaterol]
In vitro guinea pig trachea pIC50 (guinea pig trachea; ref 19): 7.719 | associated increase in FEV1, single to multiple dosing [2]: around 40 mL | In vitro human bronchi pIC50 (human bronchi; ref 22): 6.6 | In vitro human bronchi pIC50 (human bronchi; ref 24): 7.4

Structure (SMILES): COc1ccc(CC(C)NCC(O)c2ccc(O)c(NC=O)c2)cc1 (stereo not shown) [Formoterol]
In vitro guinea pig trachea pIC50 (guinea pig trachea; ref 19): 8.819 | In vitro human bronchi pIC50 (human bronchi; ref 23): 8.8

logD [3]: 2.2 | solubility [1, 5]: > 380 µM | pKa (pKa determination; pKa): 9.1
Structure (SMILES): OCc1cc(C(O)CNCCCCCCOCCCCc2ccccc2)ccc1O (stereo not shown) [Salmeterol]
In vitro human bronchi pIC50 (human bronchi; ref 21): 7.3 | In vitro human bronchi pIC50 (human bronchi; ref 22): 8.1

logD [3]: 0.9 | solubility [1, 5]: > 2500 µM | pKa (pKa determination; pKa): 8.4 | pKa (pKa determination; [6]): 6.2
Structure (SMILES): CNC(=O)c1cc(Cl)c(OC(C)(C)C(=O)O)cc1OC[C@@H](O)CN1CCC2(CC1)Cc1cc(Cl)ccc1O2 [AZD4818]

LogD7.4 [3]: 2.1 | solubility ([1]; phosphate buffer at pH 7.4): 650 µM (≈ 435 µg/mL) | pKa (pKa determination): 8.7 | pKa (pKa determination; second printed value (dibase)): 7.6
Structure (SMILES): CC(C)c1ncc(C(=O)N2CCOC3(CCN(Cc4ccc(F)c(CCNC[C@H](O)c5ccc(O)c6[nH]c(=O)sc56)c4)CC3)C2)s1 [AZD2115]

LogD7.4 [3]: 2.3 | solubility ([1]; phosphate buffer at pH 7.4): 2,510 µM | pKa (pKa determination): 9.5 | pKa (pKa determination; second printed value (dibase)): 7.1
Structure (SMILES): CCN(CC)CCN(CCNCCc1ccc(O)c2[nH]c(=O)sc12)C(=O)CCOCCc1cccc2ccccc12 [AZD3199]
In vitro guinea pig trachea pIC50 (guinea pig trachea; ref 19): 8.019 | lung half lives [4]: in the order of days

logD [3]: 3.1 | solubility [1, 5]: 28 µM (≈ 20.7 µg/mL) | pKa (pKa determination; pKa): 10 | pKa (pKa determination; [6]): 7.3
Structure (SMILES): COc1cc(NC(=O)CCN2CCC(OC(=O)Nc3ccccc3-c3ccccc3)CC2)c(Cl)cc1CNC[C@H](O)c1ccc(O)c2[nH]c(=O)ccc12 [Batefenterol, (R)‐1‐(3‐((2‐chloro‐4‐(((2‐hydroxy‐2‐(8‐hydroxy‐2‐oxo‐1,2‐dihydroquinolin‐5‐yl)ethyl)amino)methyl)‐5‐methoxyphenyl)amino)‐3‐oxopropyl)piperidin‐4‐yl [1,1'‐biphenyl]‐2‐ylcarbamate]
In vitro guinea pig trachea pIC50 (guinea pig trachea; ref 26): 8.026 | lung half lives [4]: in the order of days | associated increase in FEV1, single to multiple dosing [2]: around 100 mL

logD [3]: -1.5 | solubility [1, 5]: 6830 µM (≈ 1540 µg/mL) | pKa (pKa determination; pKa): 9.3
Structure (SMILES): CC(C)(C)NCC(O)c1cc(O)cc(O)c1 (stereo not shown) [Terbutaline]
